Laboratory results: patent publication US6448247B1, “Method for treating an inflammatory disease” (Sankyo Company, Limited, priority 1995, dated 2002)
Where two headings read alike, the source gives them in different places.

How the values were obtained:
[1] = tested on: bronchoconstriction induced with [Nle^10]-NKA[4-10], an NK2 receptor agonist; test: Inhibitory Effect on NKA-Induced Bronchoconstriction; type: in vivo, guinea pig; settings: i.v., male Hartley guinea pigs, airway pressure, test drug 5 min before [Nle^10]-NKA[4-10] i.v.
Experimental: The inhibitory effect on bronchoconstriction induced with [Nle^10]-NKA[4-10], an NK2 receptor agonist having higher specificity than neurokinin A (NKA), was assessed based on airway pressure as an index according to the modified method of Konzett-Rössler [Naunyn-Schmiedebergs Arch.Exp.Pathol.Pharmakol., 195, 71, (1940)] using guinea pigs (body weight: approximately 500 g, male Hartley guinea pigs).
After canulating the trachea of the guinea pigs under pentobarbital anaesthesia (30 mg/kg, s.c.) and treatment with gallamine (20 mg/kg, i.v.), the animals were ventilated artificially with a constant volume respiration pump (UgoBasile, 7025) at a frequency of 60 per minute and a tidal volume of 8 ml/kg. Airway pressure during artificial respiration was amplified by means of a pressure transducer (Nihon Koden, TP-200T) installed in a branch of the trachea cannula, detected (Nihon Koden, AP-610G), and recorded with a recorder (Nihon Koden, WT-685G). Following pre-treatment with atropine (1 mg/kg, i.v.) and propranolol (1 mg/kg, i.v.), the test drug was administered intravenously. Five minutes later, bronchoconstriction was induced with [Nle^10]-NKA[4-10] at […], i.v., and then airway pressure was measured for 10 minutes. The inhibitory effect was determined based on the intensity of bronchoconstriction of guinea pigs not treated with the test drug, and expressed as the percent of inhibition (%) and the dose level that caused inhibition of 50% (ID50).

[2] = target: T1, NK2 receptors (Cavia porcellus, UniProt Q64077); test: NK2 Receptor Binding Test; parameters: species or system guinea pig
T1 construct: A crude membrane fraction was prepared from the ileum of male Hartley guinea pigs; from tissue; host or cells: guinea pig ileum (crude membrane fraction)
T1 sequence (Q64077 1-402): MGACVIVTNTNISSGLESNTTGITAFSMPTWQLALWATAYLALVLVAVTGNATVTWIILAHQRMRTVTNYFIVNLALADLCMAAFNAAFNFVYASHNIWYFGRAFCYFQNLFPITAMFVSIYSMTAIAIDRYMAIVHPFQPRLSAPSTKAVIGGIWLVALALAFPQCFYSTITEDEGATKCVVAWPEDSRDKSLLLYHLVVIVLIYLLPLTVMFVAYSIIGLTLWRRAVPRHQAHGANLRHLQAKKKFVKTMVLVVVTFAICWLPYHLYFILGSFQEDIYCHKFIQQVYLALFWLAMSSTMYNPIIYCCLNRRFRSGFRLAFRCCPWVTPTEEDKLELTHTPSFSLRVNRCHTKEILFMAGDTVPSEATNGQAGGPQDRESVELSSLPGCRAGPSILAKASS
Experimental: (a) Preparation of Crude Ileum Membrane Fraction
A crude membrane fraction was prepared from the ileum of male Hartley guinea pigs. The guinea pigs were bled from the cava abdominalis under chloroform anaesthesia and the ileum was extracted immediately.
After the contents, secreta and epithelium of the lumen had been scraped off using a glass slide, the extracted ileum was thinly cut in a buffer (1) (50 mM Tris-HCl, pH 7.4) and then homogenised in a buffer (2) [buffer (1) containing 120 mM sodium chloride and 5 mM potassium chloride] using a Polytron homogenizer.
(§1) The tissue mass was removed from the homogenate by filtration with a nylon mesh (50 μm) and the supernatant was centrifuged (30,000×g, 30 minutes, 4° C.). The resultant pellet was resuspended in an ice-cooled buffer (3) [buffer (1) containing 10 mM EDTA and 30 mM potassium chloride], allowed to stand at 4° C. for 60 minutes and then washed centrifugally twice (30,000×g, 15 minutes, 4° C.).
(§2) The crude membrane fraction was preserved at −80° C. before use.
(§3) (b) Receptor Binding Test
(§4) To a mixed solution (250 μl) of the test drug and [^3H]-SR-48968 (manufactured by Amasham Co., final concentration: 1 nM) (50 mM Tris-HCl, pH 7.4; 4.6 mM manganese chloride, 800 μg/ml BSA, 8 μg/ml chymostatin, 8 μg/ml leupeptin, 80 μg/ml bacitracin, 20 g/ml phosphoramidon) was added a crude ileum membrane fraction solution (250 μl), followed by incubation at room temperature for 30 minutes.
At the end of this time, a membrane ingredient was recovered on a GF/B glass fiber filter (manufactured by Whatman Co.) using an automatic filtering device (manufactured by Brandel Co.). The glass filter was used after pre-treatment with a 0.1% polyethyleneimine solution for about 4 hours so as to inhibit non-specific binding as little as possible.
The membrane ingredient-recovered filter was transferred to a mini-plastic vial containing a pico flow (4 ml) and the radioactivity was measured using a liquid scintillation counter (LSC3000, manufactured by Beckman Co.).

[3] = target: T2, NK1 receptors (Cavia porcellus, UniProt P30547); test: NK1 Receptor Binding Test; parameters: species or system guinea pig
T2 construct: A crude membrane fraction was prepared from the lung of male Hartley guinea pigs; from tissue; host or cells: guinea pig lung (crude membrane fraction)
T2 sequence (P30547 whole entry): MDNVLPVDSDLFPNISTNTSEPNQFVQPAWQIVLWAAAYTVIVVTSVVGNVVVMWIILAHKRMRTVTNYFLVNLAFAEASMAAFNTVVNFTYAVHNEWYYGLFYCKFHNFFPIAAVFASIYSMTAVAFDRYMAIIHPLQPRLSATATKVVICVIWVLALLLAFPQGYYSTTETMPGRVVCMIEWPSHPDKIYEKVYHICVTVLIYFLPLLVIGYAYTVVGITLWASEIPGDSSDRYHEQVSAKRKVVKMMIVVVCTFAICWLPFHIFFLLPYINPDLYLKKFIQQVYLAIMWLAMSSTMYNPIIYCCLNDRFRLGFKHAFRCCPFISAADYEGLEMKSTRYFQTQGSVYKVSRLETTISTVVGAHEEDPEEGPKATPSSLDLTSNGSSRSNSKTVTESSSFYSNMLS
Experimental: (a) Preparation of Crude Lung Membrane Fraction
A crude membrane fraction was prepared from the lung of male Hartley guinea pigs. The guinea pigs were bled from the cava abdominalis under chloroform anaesthesia and the pulmonary airway tissue was extracted immediately.
as §1, with “The extracted lung was perfused with a buffer (1) (50 mM Tris-HCl, pH 7.4), thinly cut in the buffer, and then homogenised in a buffer (2) [buffer (1) containing 120 mM sodium chloride and 5 mM potassium chloride] using a Polytron homogenizer. The tissue” for “The tissue”, “EDTA and 300 mM potassium” for “EDTA and 30 mM potassium”
as §2, §3
as §4, with “and [^3H]-substance P (final” for “and [^3H]-SR-48968 (manufactured by Amasham Co., final”, “7.4; 6” for “7.4; 4.6”, “20 μg/ml” for “20 g/ml”, “crude lung” for “crude ileum”
At the end of this time, a lung membrane ingredient was recovered on a GF/B glass fiber filter (manufactured by Whatman Co.) using an automatic filtering device (manufactured by Brandel Co.).
The glass filter was used after being pre-treated with a 0.1% polyethyleneimine solution for about 4 hours so as to inhibit non-specific binding as little as possible. The membrane ingredient-recovered filter was transferred to a mini-plastic vial containing a pico flow (4 ml) and the radioactivity was measured using a liquid scintillation counter (LSC3000, manufactured by Beckman Co.).

[4] = tested on: increased vascular permeability induced by substance P (SP), an NK1 receptor agonist; test: Inhibitory Effect on SP-Induced Increased Vascular Permeability; type: in vivo, guinea pig; settings: i.v., male Hartley guinea pigs, pigment (Evans blue) leakage into primary bronchus 15 min after SP i.v.
Experimental: The inhibitory effect on increased vascular permeability induced by substance P (SP), an NK1 receptor agonist, was assessed based on the amount of pigment leakage as an index using guinea pigs (body weight: approx. 400 g, male Hartley guinea pigs). Immediately after administering pigment (Evans blue: 20 mg/kg, i.v.) and the test drug in that order into the femoral vein of the guinea pigs under pentobarbital anaesthesia (25 mg/kg, i.p.), increased vascular permeability was induced by administration of SP ([…], i.v.). Fifteen minutes later, the guinea pigs were sacrificed by chloroform anaesthesia and the amount of pigment that leaked into the primary bronchus was measured according to the method of Harada (J. Pharm. Pharmacol., 23, 218, 1971). Inhibitory effect was determined based on the amount of pigment leakage found in guinea pigs not treated with the test drug, and expressed as the percent of inhibition (%) and the dose level that caused inhibition of 50% (ID50).

[5] = [3H]-SR-48968 1 nM, crude ileum membrane fraction of male Hartley guinea pigs, read-out: IC50 (converted)
[6] = [3H]-substance P 1 nM, crude lung membrane fraction of male Hartley guinea pigs, read-out: IC50 (converted)

Compound	ID50 [1]	IC50 [2, 5]	IC50 [3, 6]	ID50 [4]	IC50 [2]	IC50 [3]	activity in NK2 binding test (in words) ([2]; comment on Table 5)
Cc1cc(C)cc(C(=O)N(C)C[C@@H](CCN2CCC3(CC2)CN(S(C)(=O)=O)c2ccccc23)c2ccc(Cl)c(Cl)c2)c1 [Compound A]	>10 mg/kg	28.6 nM	60.4 nM	5.8 mg/kg	–	–	–
CN(C[C@@H](CCN1CCC2(CCc3ccccc32)CC1)c1ccc(Cl)c(Cl)c1)C(=O)c1ccccc1 [Compound B]	0.37 mg/kg	–	–	>10 mg/kg	4.22 nM	> 1920 nM	–
COc1cc(C(=O)N2CC[C@](CCN3CCC(C(N)=O)(c4ccccc4)CC3)(c3ccc(Cl)c(Cl)c3)C2)cc(OC)c1OC [Compound C]	1.7 mg/kg	48.4 nM	10.1 nM	0.019 mg/kg	–	–	very weak activity
COc1cc(C(=O)N2CO[C@](CCN3CCC4(CC3)c3ccccc3C[S@+]4[O-])(c3ccc(Cl)c(Cl)c3)C2)cc(OC)c1OC [Example 75, 1-{2-[(5R)-(3,4-Dichlorophenyl)-3-(3,4,5-trimethoxybenzoyl)oxazolidine-5-yl]ethyl}spiro[benzo[c]thiophene-1(3H),4′-piperidine]-(2S)-oxide]	0.074 mg/kg	1.29 nM	8.94 nM	0.025 mg/kg	–	–	–
COc1cc(C(=O)N2CCOC(CCN3CCC4(CC3)c3ccccc3C[S+]4[O-])(c3ccc(Cl)c(Cl)c3)C2)cc(OC)c1OC [Example 76, 1-{2-[(2R)-(3,4-Dichlorophenyl)-4-(3,4,5-trimethoxybenzoyl)morpholin-2-yl]ethyl}spiro[benzo[c]thiophene-1(3H),4′-piperidine]-(2S)-oxide]	0.047 mg/kg	–	–	0.047 mg/kg	–	–	–
